In one data set the target is T1, GPIIb-IIIa (Homo sapiens, UniProt P05106+P08514).
T1 construct: Purified platelet GPIIb-IIIa receptor was prepared as described by Fitzgerald; from tissue; host or cells: platelets
T1 sequence (P08514 32-887 limits assumed): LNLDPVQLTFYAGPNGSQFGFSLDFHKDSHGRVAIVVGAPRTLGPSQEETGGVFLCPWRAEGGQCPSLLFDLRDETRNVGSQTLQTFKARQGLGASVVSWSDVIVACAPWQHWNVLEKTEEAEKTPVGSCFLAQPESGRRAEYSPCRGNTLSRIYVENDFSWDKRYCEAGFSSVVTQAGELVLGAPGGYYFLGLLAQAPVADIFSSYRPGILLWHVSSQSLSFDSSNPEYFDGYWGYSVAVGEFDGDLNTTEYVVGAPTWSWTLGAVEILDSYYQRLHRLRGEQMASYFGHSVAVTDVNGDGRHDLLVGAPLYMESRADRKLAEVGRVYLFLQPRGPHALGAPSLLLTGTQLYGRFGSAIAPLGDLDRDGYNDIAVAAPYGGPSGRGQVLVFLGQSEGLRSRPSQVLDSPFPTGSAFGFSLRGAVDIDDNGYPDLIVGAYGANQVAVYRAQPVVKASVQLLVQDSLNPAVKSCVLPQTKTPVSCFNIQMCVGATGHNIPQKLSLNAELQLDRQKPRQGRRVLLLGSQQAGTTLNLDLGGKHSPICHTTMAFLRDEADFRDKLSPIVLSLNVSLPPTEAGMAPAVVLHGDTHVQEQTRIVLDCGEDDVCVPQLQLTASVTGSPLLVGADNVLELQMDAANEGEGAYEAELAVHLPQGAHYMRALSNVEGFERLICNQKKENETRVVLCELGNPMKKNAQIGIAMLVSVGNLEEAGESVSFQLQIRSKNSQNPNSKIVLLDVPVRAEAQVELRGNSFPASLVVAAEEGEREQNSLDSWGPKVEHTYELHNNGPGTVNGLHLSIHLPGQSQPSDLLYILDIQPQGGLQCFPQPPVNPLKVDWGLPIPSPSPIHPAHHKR
T1 sequence (P05106 27-788): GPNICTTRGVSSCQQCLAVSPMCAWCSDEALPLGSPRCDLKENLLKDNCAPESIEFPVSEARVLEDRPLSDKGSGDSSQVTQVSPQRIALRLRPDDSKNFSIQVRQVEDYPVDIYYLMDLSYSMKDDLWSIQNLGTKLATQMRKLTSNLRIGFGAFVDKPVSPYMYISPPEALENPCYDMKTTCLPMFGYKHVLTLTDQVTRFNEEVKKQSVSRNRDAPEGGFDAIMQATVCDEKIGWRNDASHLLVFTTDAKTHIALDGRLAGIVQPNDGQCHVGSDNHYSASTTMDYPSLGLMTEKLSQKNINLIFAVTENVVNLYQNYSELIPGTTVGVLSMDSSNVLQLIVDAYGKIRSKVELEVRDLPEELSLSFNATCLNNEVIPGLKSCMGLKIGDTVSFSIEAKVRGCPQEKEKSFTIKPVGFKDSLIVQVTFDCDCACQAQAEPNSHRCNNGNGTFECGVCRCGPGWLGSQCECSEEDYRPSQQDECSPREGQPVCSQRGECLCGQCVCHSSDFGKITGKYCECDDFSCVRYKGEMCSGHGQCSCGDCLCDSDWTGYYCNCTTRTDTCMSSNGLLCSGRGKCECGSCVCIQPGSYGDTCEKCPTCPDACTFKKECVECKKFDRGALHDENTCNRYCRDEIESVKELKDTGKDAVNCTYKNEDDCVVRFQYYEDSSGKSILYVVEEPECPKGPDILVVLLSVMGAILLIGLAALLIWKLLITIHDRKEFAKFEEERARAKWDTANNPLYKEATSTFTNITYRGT
The data set can be described thus: ELISA IIb-IIIa assay (fibrinogen binding to immobilized GPIIb-IIIa). The following applies: purified platelet GPIIb-IIIa receptor coated on ELISA plates; biotin-labeled fibrinogen 10 nM, 3 hours at 25° C. The essentials: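 Purified platelet GPIIb-IIIa was coated overnight at 4° C in Tris/NaCl/CaCl2 pH 7.4 and BSA-blocked. Biotinylated fibrinogen (10 nM final) was incubated with test compounds for 3 h at 25° C in Ca2+-containing binding buffer. Bound ligand was detected by anti-biotin–alkaline phosphatase with pNPP, OD 405.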

Data set [1] relates to human platelet-rich plasma. The data set can be described thus: Platelet aggregation assay (Aggregation-Human PRP/ADP). In kind it is cell-based. The conditions noted are these: human platelet-rich plasma incubated with compound 1 minute at 37° C., ADP-induced aggregation, read-out: Agg: Human PRP/ADP IC50uM. The essentials: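 Citrated human PRP (~200-400,000 platelets/μl) from healthy volunteers, stirred, incubated with compound 1 min at 37° C. Aggregation was then triggered, most often by ADP 5 μM, or by 1 μg/ml collagen, 1 μM U46619 or 0.3 μM platelet activating factor, and read in an aggregometer with platelet-poor plasma as reference.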

Structures can show the parent of a compound that is named as a salt. Where two headings read alike, the source gives them in different places. Some results are limits rather than exact numbers.

Among the data in US6448269B1 (Eli Lilly and Company, priority 1993, dated 2002) are melting point and IC50 values, retold here.

In the case of `N=C(N)c1ccc(C(=O)Nc2ccc3c(c2)CCC(CC(=O)O)C3=O)s1` (stereo not drawn) [Example 106], the melting point was 205 to 208 °C (dec.). As to “(+−)-6-[[4-(Aminoiminomethyl)phenyl]methoxy]-3,4-dihydro-1-oxo-beta-(1,4-dioxyhexyl)-2(1H)-isoquinoline Propionoic Acid Trifluoroacetate [Example 13]”, the IC50 on GPIIb-IIIa amounted to 100 nM; in data set [1], 0.68 µM. On to `N=C(N)c1cccc(C#Cc2ccc3c(c2)CCN(CC(=O)O)C3=O)c1` [Example 17, 6-[[3-(Aminoiminomethyl)phenyl]ethynyl]-3,4-dihydro-1-oxo-2(1H)-isoquinoline Acetic Acid Trifluoroacetate], for which the IC50 is 45000 nM on GPIIb-IIIa and more than 100 µM in data set [1] (1 min). For `N=C(N)c1ccc(NC(=O)c2ccc3c(c2)CCC(CC(=O)O)C3)cc1` (stereo not drawn) [Example 40], in that order: 53 nM and 1.6 µM. For `CCOC(=O)CC1CCc2cc(NC(=O)c3ccc(C(=N)N)cc3F)ccc2O1` (racemic) [Example 69, Ethyl rac-(6-(N-(4-(Aminoiminomethyl)-2-fluorobenzoyl)amino)-3,4-dihydro-2H-1-benzopyran-2-yl)acetate Hydrochloride], in that order: 9 nM and 0.16 µM.
